Data taken from patent US3966744A, “Spin labeled compounds” (priority 1974, dated 1976).
Where “and” joins values, the source holds several entries; their conditions need not be identical. Equal entries are not always repeated. Structures can show the parent of a compound that is named as a salt. Where two headings read alike, the source gives them in different places.

What was measured:
phenobarbital antibody = experiment: Phenobarbital spin immunoassay; details: 1 × 10^-5 M (2.2-2.6 μg/ml), pH 7, 10 µM
morphine antibodies = experiment: Morphine spin immunoassay (ESR), specificity; details: spin label of Example 2.1
Amphetamine antibody = experiment: Amphetamine spin immunoassay; format: binding, rabbit; details: for mobilization with urine of individuals who indicated taking cross reacting substances: six of 100 urines, background 10% or less
Protocol: Two plastic cups were employed. In one cup was 2.5 μl of 0.2 M sodium dichromate. In the other cup was 5.0 μl of antibody solution. The sample was transferred employing a 25 μl Oxford Sampler and introduced into the cup containing dichromate. The dichromate sample solution was agitated by means of the sample, drawn up with the sampler and introduced into the cup containing antibody, without touching the antibody. To the resulting solution was then added 5 μl of spin label, the sample was then stirred with an ESR capillary tube, the sample allowed to rise into the capillary and the spectrum read.

[1] = tested on: antibody (methadone assay); format: binding, rabbit; details: 3.4 μg/ml
Protocol: The spin immunoassay was carried out similarly to the prior assays. Two plastic cups were employed, one cup containing 5 μl of 0.2 molar sodium dichromate and the second 5 μl of borate buffered antibody at pH 8. […] To the dichromate is added 50 μl of sample and a 20 μl aliquot is transferred from the first cup to the second cup containing the antibody solution.
Fifty-five urine samples were tested according to the above procedure.

[2] = tested on: supported morphine antibodies; experiment: Binding of free radical labeled morphine to supported morphine antibodies (ESR); set-up: species or system rabbit; details: pH 8 borate buffer, 10^-4 M label, 2 hours
secobarbital antibody = experiment: Secobarbital (seconal) spin immunoassay
antibody (cocaine assay) = format: binding, rabbit; details: read from graph
morphine antibody = experiment: Detection of morphine and its metabolite in urine by spin immunoassay (ESR); format: binding, rabbit
dinitrophenyl antibodies = experiment: Spin immunoassay with labeled dinitrophenyl hapten and dinitrophenyl antibodies (ESR); format: binding; details: increasing amounts, 10^-5 M solution in water, maximum 14 μl
Protocol: (The antibodies were prepared according to Eisen, et al., JACS, 75, 4583 (1953) and the labeled hapten was prepared in accordance with Hsia, et al, Archives of Biochemistry and Biophysics 132, 466 (1969)). The following procedure was employed. The quantities of the two compounds were chosen by adding small portions of the haptens to the antibody solution until the ESR signal intensity began to rise sharply with addition of each portion. At this point, all the binding sites on the antibodies were occupied by the label and the addition was stopped. Increasing amounts of N-epsilon-dinitrophenyllysine were then added to the solution.
The labeled hapten was dissolved in 20 percent aq. methanol at about 1-2 × 10^-^5 M concentration. Approximately 10 μl of the antibody solution and 10-20 μl of the labeled hapten solution were combined and varying amounts of 10^-^5 M solution of N-epsilon-dinitrophenyllysine in water added, the maximum being 14 μl.
By using appropriate standards, the ESR signal intensity may be related to the concentration of the N-epsilon dinitrophenyllysine in solution. Therefore, by taking an unknown solution suspected of having such a hapten, and introducing a standardized amount of the antibody-hapten complex, one can rapidly determine the concentration of the N-epsilon dinitrophenyllysine in solution.

[3] = Storage stability of the cocaine assay spin label (binding constant); format: physicochemical; details: storage in distilled water, substantially metal ion free, carbon dioxide bubbled through
Protocol: The spin labeled compound employed was prepared according to Example 7.1.

[4] = urine samples 6-10 of drug takers, percentage of maximum increase with high concentrations of morphine, drug taken

## CCC1(c2ccccc2)C(=O)NC(=O)NC1=O [phenobarbital]
Phenobarbital antibody
  % Mobilization: 25%

## CCC1(CC)C(=O)NC(=O)N(C)C1=O [metharbital]
Phenobarbital antibody
  % Mobilization: 6%

## CCC(=O)C(CC(C)N(C)C)(c1ccccc1)c1ccccc1 (centres unmarked) [methadone]
Morphine antibodies
  detection by the morphine assay: insensitive

## CCC1(c2ccccc2)CCC(=O)NC1=O (centres unmarked) [glutethimide]
Phenobarbital antibody
  % Mobilization: 0.5%

## CC(N)Cc1ccccc1 (centres unmarked) [amphetamine.HCl]
Amphetamine antibody; 1.7 μg/ml (1.1 × 10^-5 M)
  % Mobilization: 26%

## CN(C)CCCN1c2ccccc2Sc2ccc(Cl)cc21 [thorazine]
[1]
  % Mobilization: 9%

## CN1CC[C@]23c4c5ccc(OCC(=O)NC6CC(C)(C)N([O])C(C)(C)C6)c4O[C@H]2[C@@H](O)C=C[C@H]3[C@H]1C5 [Example 2.2, 4-[2'(O^3" Morphino)acetamido]-2,2,6,6-tetramethylpiperidino-1-oxyl]
[2]
  binding of the free radical labeled morphine to the receptor (ESR signals): broad ESR signals indicating the binding of the free radical labeled morphine to the receptor

## CCCC(C)C1(CC)C(=O)NC(=S)NC1=O (centres unmarked) [thiopental sodium]
Secobarbital antibody
  minimum concentration that could be detected: 3.5 µg/mL

## CCC1(CCC(C)C)C(=O)NC(=O)NC1=O [amobarbital]
Secobarbital antibody
  minimum concentration that could be detected: 2.5 µg/mL
Phenobarbital antibody
  % Mobilization: 16%

## NCCc1ccccc1 [phenethylamine]
Amphetamine antibody; 2.5 μg/ml (0.8-2.1 × 10^-5 M)
  % Mobilization: 26%

## CC(N)C(O)c1ccccc1 (centres unmarked) [phenylpropanolamine]
Amphetamine antibody
  mobilization with urine of individuals who indicated taking cross reacting substances: greater than 14%
Antibody (cocaine assay); 10 μg/ml
  % Mobilization: 26%

## CNC(C)(C)Cc1ccccc1 [mephentermine.H2 SO4]
Amphetamine antibody; 2.5 μg/ml (0.8-2.1 × 10^-5 M)
  % Mobilization: 28%

## CNC(C)CC1CCCCC1 (centres unmarked) [propylhexedrine.HCl]
Amphetamine antibody; 250 μg/ml (131 × 10^-5 M)
  % Mobilization: 71%

## CCC1(c2ccccc2)C(=O)NC(=O)NC1=O [sodium phenobarbital]
Secobarbital antibody
  minimum concentration that could be detected: 40 µg/mL

## COc1ccc2c3c1O[C@H]1[C@@H](O)C=C[C@H]4[C@@H](C2)N(C)CC[C@@]341 [codeine]
Morphine antibody; [4]
  % Signal Increase: 75% and 62%
Morphine antibodies
  detection by the morphine assay: detected by the same procedure

## CNC(C)Cc1ccccc1 (centres unmarked) [methamphetamine.HCl]
Amphetamine antibody; 2.5 μg/ml (0.8-2.1 × 10^-5 M)
  % Mobilization: 29%

## CCCC(C)C1(CC)C(=O)NC(=O)NC1=O (centres unmarked) [pentobarbital]
Secobarbital antibody
  minimum concentration that could be detected: 2 µg/mL

## COC(=O)[C@H]1[C@@H](OC(=O)c2ccccc2)C[C@@H]2CC[C@H]1N2C [cocaine]
Antibody (cocaine assay); 1 μg/ml
  % Mobilization: 49%
Antibody (cocaine assay); 10 μg/ml
  % Mobilization: 80%

## CC(=O)Oc1ccc2c3c1O[C@H]1[C@@H](OC(C)=O)C=C[C@H]4[C@@H](C2)N(C)CC[C@@]341 [heroin]
Morphine antibody; urine of single heroin user, day 2, drug taken on second and fifth days
  % Signal Increase: 57%
Morphine antibody; urine of single heroin user, day 3, drug taken on second and fifth days
  % Signal Increase: 32%
Morphine antibody; urine of single heroin user, day 4, drug taken on second and fifth days
  % Signal Increase: 26%
Morphine antibody; urine of single heroin user, day 5, drug taken on second and fifth days
  % Signal Increase: 47%
Morphine antibody; urine of single heroin user, day 6, drug taken on second and fifth days
  % Signal Increase: 26%
Morphine antibody; urine of single heroin user, day 7, drug taken on second and fifth days
  % Signal Increase: 16%
Morphine antibody; urine of single heroin user, day 8, drug taken on second and fifth days
  % Signal Increase: 8%
Morphine antibody; urine of single heroin user, day 9, drug taken on second and fifth days
  % Signal Increase: 40%
Morphine antibody; [4]
  % Signal Increase: 81% and 100%

## CC(N)C(O)c1ccccc1 (centres unmarked) [phenylpropanolamine.HCl]
Amphetamine antibody; 2.5 μg/ml (0.8-2.1 × 10^-5 M)
  % Mobilization: 13%

## CC(N)Cc1ccccc1 (centres unmarked) [amphetamine]
Amphetamine antibody
  recognition by the amphetamine antibody: recognizes
  mobilization with urine of individuals who indicated taking cross reacting substances: greater than 14%
Amphetamine antibody; 10^-3 molar amphetamine, loading ratio 0.95
  peak ratio (amphetamine/saline): 5

## CNC(C)(C)Cc1ccccc1 [mephentermine]
Amphetamine antibody
  recognition by the amphetamine antibody: recognizes
Antibody (cocaine assay); 10 μg/ml
  % Mobilization: 35%

## CCCC(C)C1(CC)C(=O)NC(=O)NC1=O (centres unmarked) [sodium pentobarbital]
Phenobarbital antibody
  % Mobilization: 10%

## CC(Cc1ccccc1)N(C)Cc1ccccc1 (centres unmarked) [benzophetamine.HCl]
Amphetamine antibody; 2.5 μg/ml (0.8-2.1 × 10^-5 M)
  % Mobilization: 12%

## COc1ccc2c(c1)[C@]13CCCC[C@@H]1[C@H](C2)N(C)CC3 [dextromethorphan]
Antibody (cocaine assay); 10 μg/ml
  % Mobilization: 33%

## NC(CCCCNc1ccc([N+](=O)[O-])cc1[N+](=O)[O-])C(=O)O (centres unmarked) [N-epsilon-dinitrophenyllysine]
Dinitrophenyl antibodies
  ESR signal on addition to antibodies-labeled hapten complex: an increase in the ESR signal was observed

## COc1cc(CCN)cc(OC)c1OC [mescaline]
Amphetamine antibody
  mobilization with urine of individuals who indicated taking cross reacting substances: greater than 14%

## CN[C@@H](C)Cc1ccccc1 [methamphetamine]
Amphetamine antibody
  recognition by the amphetamine antibody: recognizes

## CN[C@@H](C)[C@@H](O)c1ccccc1 [pseudophedrine]
Amphetamine antibody
  mobilization with urine of individuals who indicated taking cross reacting substances: greater than 14%

## COC(=O)[C@H]1[C@@H](OC(=O)c2ccc(NC(=O)C3CC(C)(C)N([O])C3(C)C)cc2)C[C@@H]2CC[C@H]1N2C (some centres unmarked) [Example 7.1]
[3]
  binding constant on storage of the spin label: the binding constant diminished with time unless the spin label was stored at pH 5 in the absence of any buffer

## C=CCC1(C(C)CCC)C(=O)NC(=O)NC1=O (centres unmarked) [secobarbital]
Secobarbital antibody
  sensitivity of the assay: the greatest sensitivity is achieved with secobarbital
Phenobarbital antibody
  % Mobilization: 7%

## C=CCN1CC[C@]23c4c5ccc(O)c4O[C@H]2[C@@H](O)C=C[C@H]3[C@H]1C5 [nalorphine]
Morphine antibodies
  detection by the morphine assay: can also be detected

## CCC1(c2ccccc2)C(=O)NC(=O)N(C)C1=O (centres unmarked) [mephobarbital]
Phenobarbital antibody
  % Mobilization: 32%

## CN1CC[C@]23c4c5ccc(O[C@@H]6O[C@H](C(=O)O)[C@@H](O)[C@H](O)[C@H]6O)c4O[C@H]2[C@@H](O)C=C[C@H]3[C@H]1C5 [morphine-O^3 -glucuronide]
Morphine antibodies
  detection by the morphine assay: can also be detected
